Assay [1] has as its system MES-SA/DX5 (multi-drug resistant human uterine sarcoma cell line). The assay can be described thus: In vitro activity against multi-drug resistant cell line MES-SA/DX5. Type of assay: cell-based. Here is the method:
(§1) The cell lines were maintained in RPMI1640 (GIBCO) supplemented with 10% FCS, 100 units/ml penicillin, 100 ug/ml streptomycin, and 2 mM L-glutamine. The cells were split every third day and diluted to a concentration of 2×10^5 cells/ml one day before experiment. All experiments were performed on exponentially growing cell culture. Cell densities were 2.5×10^4 cells/ml in all experiment.
(§2) A stock solution of Compound (1) and a stock solution of Taxol (positive control) were prepared by dissolving the compound at a concentration of 1 mM in 100% DMSO. Final concentrations were obtained by diluting the stock solution directly into the tissue culture medium. Cells were incubated with varying concentrations of the compounds for 72 hours and the IC50 was determined by MTS (i.e. 3-(4,5,-dimethylthiazol-2-yl)-2,5-diphenyl tetrazolium bromide) assay. IC50 stands for the concentration of compound required to inhibit 50% tumor cell growth.
(§3) In vitro activity was determined in two MDR (Multi Drug Resistant) human cancer cell lines. HL-60/TX1000 was isolated in vitro by subculturing HL-60 in progressively higher concentration of Taxol. HL-60/TX1000 cells over-express mdr-1 mRNA and p-glycoprotein, as determined by western blot and immunofluorescence labeling with antiPGP antibodies. The cell is cross-resistant to Taxol, Vincristine, Adriamycin, Etoposide and Doxorubicin. MES-SA/Dx5 was established in the presence of increasing concentrations of Doxorubicin. […] MES-SA/Dx5 was purchased from ATCC.
(§4) The procedure for culturing the cells and assaying cancer cell growth inhibition were as described in Example 3.
The protocol described in Examples 9-10 was used to assay inhibition by Compounds (2)-(8) on the growth of the multidrug resistant cancer cell line MES-SA/DX5, which is a MDR uterine sarcoma cell line.

The subject of assay [2] is DU-145 (human prostate cancer). In words: In vitro anti-cancer activity, MTS growth inhibition assay, DU-145. Type of assay: cell-based. Here is the method:
(§5) The in vitro activity of the compounds was determined in the following seven human cancer cell lines. MDA435 (human breast cancer), MIP101 (human colon cancer), HL-60 (human myeloid leukemia), U937 (human leukemia), p388 (murine leukemia), DU-145 (human prostate cancer), MES-SA (human uterine sarcoma) were obtained from ATCC (American Type of Culture Collection).
as §1, §2
(§6) The protocol described in Examples 9-10 was used to assay inhibition by Compounds (20) (21) (24) and (28) on the growth of cancer cell lines MES-SA (human uterine sarcoma cell line) and DU-145 (human prostate cancer).

Assay [3] concerns MES-SA (human uterine sarcoma). In words: In vitro anti-cancer activity, MTS growth inhibition assay, MES-SA. Type of assay: cell-based. Here is the method:
as §5, §1, §2, §6
On the technique in general: Formazan colour is commonly taken as a measure of viable cells.

For the next assay, the system named is MES-SA and DU-145. In words: in vitro activity over MES-SA and DU-145. Type of assay: cell-based. The conditions noted are these: Homo sapiens; range over both cell lines; read-out: IC50 against MES-SA and DU-145. On the procedure: as §1, §2, §6
The test system of assay [4] is MDA435 (human breast cancer). In words: In vitro anti-cancer activity, MTS growth inhibition assay, MDA-435. Type of assay: cell-based. Particulars: MDA-435 cells, 72 hours. Here is the method:
as §5, §1, §2

The subject of assay [5] is MIP101 (human colon cancer). In words: In vitro anti-cancer activity, MTS growth inhibition assay, MIP-101. Type of assay: cell-based. Particulars: MIP-101 cells, 72 hours. On the procedure:
as §5, §1, §2

The subject of assay [6] is HL-60 (human myeloid leukemia). In words: In vitro anti-cancer activity, MTS growth inhibition assay, HL-60. The conditions noted are these: HL-60 cells, 72 hours. Type of assay: cell-based. On the procedure: as §5, §1, §2
The next assay deals with U937 (human leukemia). The assay can be described thus: In vitro anti-cancer activity, MTS growth inhibition assay, U-937. The conditions noted are these: U-937 cells, 72 hours. Type of assay: cell-based. On the procedure:
as §5, §1, §2

A further assay relates to p388 (murine leukemia). The assay can be described thus: In vitro anti-cancer activity, MTS growth inhibition assay, p388. Type of assay: cell-based. The conditions noted are these: Mus musculus, p388 cells, 72 hours. Here is the method:
as §5, §1, §2

In assay [7] the test system is HL-60/TX1000 (multi-drug resistant human myeloid leukemia cell line). In words: In vitro activity against multi-drug resistant cell line HL-60/TX1000. Type of assay: cell-based. The conditions noted are these: HL60/TX1000, HL-60/TX1000 MDR cells (Table 2). On the procedure:
as §1, §2, §3, §4

For assay [8], the system named is MDR cell lines (MES-SA/DX5, HL-60/TX1000). The assay can be described thus: in vitro activity over the two MDR cell lines. Type of assay: cell-based, human. Particulars: Homo sapiens; range over MES-SA/DX5 and HL-60/TX1000; read-out: IC50 against the MDR cell lines. Here is the method: as §1, §2, §3, §4
Where [9] appears, read: MES-SA/DX5 MDR cells (Table 3, Example 12).
The mark [10] stands for this setting: DU-145 cells (Table 4, Example 13), read-out: IC50 DU-145.
Where [11] appears, read: MES-SA cells (Table 4, Example 13), read-out: IC50 MES-SA.

Like-named read-outs stand apart in the source and are kept apart here.

For orientation: IC50 means the concentration that gives 50% inhibition.

For `Cc1cc(NC(=O)C(=O)c2cc(Cc3ccc(Cl)cc3)n3ccccc23)sn1` [Compound (2)], the concentration for half-maximal inhibition (IC50) in assay [1] (setting [9]) came out at 60 nM.
`O=C(Nc1ccc2ncccc2c1)C(=O)c1cc(Cc2ccc(Cl)cc2)n2ccccc12` [Compound (3)] yielded an IC50 in assay [1] (setting [9]) of 100 nM.
The same measure, in the same setting: for `Cc1cc(NC(=O)C(=O)c2cc(Cc3ccc(C#N)cc3)n3cc(F)ccc23)sn1` [Compound (4)] the value was 50 nM.
With `N#Cc1ccc(Cc2cc(C(=O)C(=O)Nc3ccc4ncccc4c3)c3ccccn23)cc1` [Compound (5)], the half-inhibitory concentration (IC50) in [1] (setting [9]) turned out to be 100 nM.
Turning to `Cc1cc(NC(=O)C(=O)c2cc(Cc3ccccc3)n3ccccc23)sn1` [Compound (6)], the IC50 in assay [1] (setting [9]) came to 50 nM.
Regarding `Cc1cc(NC(=O)C(=O)c2cc(Cc3ccc(F)cc3)n3ccccc23)sn1` [Compound (7)], the half-inhibitory concentration (IC50) in assay [1] (setting [9]) was 50 nM.
`COc1ccc(Cc2cc(C(=O)C(=O)Nc3cc(C)ns3)c3ccccn23)cc1` [Compound (8)] showed a half-maximal inhibitory concentration (IC50) in assay [1] (setting [9]) of 100 nM.
For `Cc1cc(NC(=O)C(=O)c2cc(Oc3ccc(C#N)cc3)n3ccccc23)sn1` [Compound (20), 2-[3-(4-Cyano-phenoxy)-indolizin-1-yl]-N-(3-methyl-isothiazol-5-yl)-2-oxo-acetamide], the half-inhibitory concentration (IC50) was 50 nM in assay [2] (setting [10]); 50 nM in [3] (setting [11]); 50 to 100 nM in the assay on MES-SA and DU-145.
Take `Cc1cc(NC(=O)C(=O)c2cc(N(C)c3ccc(C#N)cc3)n3ccccc23)sn1` [Compound (21), 2-{3-[(4-Cyano-phenyl)-methyl-amino]-indolizin-1-yl}-N-(3-methyl-isothiazol-5-yl)-2-oxo-acetamide]: the 50% inhibitory concentration (IC50) in assay [2] (setting [10]) is 50 nM; in assay [3] (setting [11]) it was 50 nM; in the assay with MES-SA and DU-145, 50 to 100 nM.
With `Cc1ccc2c(C(=O)C(=O)Nc3cc(C)ns3)cc(Cc3ccc(C#N)cc3)n2c1` [Compound (24), 2-[3-(4-Cyano-benzyl)-6-methyl-indolizin-1-yl]-N-(3-methyl-isothiazol-5-yl)-2-oxo-acetamide], the IC50 in [2] (setting [10]) was 50 nM; in [3] (setting [11]) it was 50 nM; in the assay on MES-SA and DU-145 it was 50 to 100 nM.
As for `Cc1cc(NC(=O)C(=O)c2cc(Cc3ccc(C#N)s3)n3ccccc23)sn1` [Compound (28), 2-[3-(5-cyano-thiophen-2-ylmethyl)-indolizin-1-yl]-N-(3-methyl-isothiazol-5-yl)-2-oxo-acetamide], the concentration for half-maximal inhibition (IC50) in assay [2] (setting [10]) was 100 nM; in assay [3] (setting [11]), 100 nM; with MES-SA and DU-145, 50 to 100 nM.
In the case of `CC(=O)O[C@H]1C(=O)[C@@]2(C)[C@H]([C@H](OC(=O)c3ccccc3)[C@]3(O)C[C@H](OC(=O)[C@H](O)[C@@H](NC(=O)c4ccccc4)c4ccccc4)C(C)=C1C3(C)C)[C@]1(OC(C)=O)CO[C@@H]1C[C@@H]2O` [Taxol, reference compound], the IC50 was determined as 5 nM in assay [4]; 500 nM in assay [5]; 5 nM in assay [6]; 5 nM in the assay on U937 (human leukemia); 10 nM in the assay with p388 (murine leukemia); 5 nM in assay [2] (DU-145 cells, 72 hours, MTS assay (Table 1), read-out: IC50). Moreover, the IC50 is 5 nM in assay [3] (MES-SA cells, 72 hours, MTS assay (Table 1), read-out: IC50); 5 µM in [7]; 5000 nM in [1] (setting [9]); 1000 to 5000 nM in [8].
Turning to `CC[C@]1(O)C[C@H]2CN(CCc3c([nH]c4ccccc34)[C@@](C(=O)OC)(c3cc4c(cc3OC)N(C=O)[C@H]3[C@@](O)(C(=O)OC)[C@H](OC(C)=O)[C@]5(CC)C=CCN6CC[C@]43[C@@H]65)C2)C1` [Vincristine], the half-inhibitory concentration (IC50) was 5 µM in [7]; 1000 nM in assay [1] (MES-SA/Dx5, MES-SA/DX-5 MDR cells (Table 2)); 1000 to 5000 nM in assay [8].

The record behind these values is patent publication US20040214850A1, “1-glyoxylamide indolizines for treating cancer” (Synta Pharmaceuticals Corp., priority 2001, published 2004).
